Tests used:
[1] = biological target: human PDHK1 (hPDHK1) (Homo sapiens (Human), UniProt Q15118); assay: Inhibitory action of PDHK1 activity in vitro (residual PDH activity after kinase reaction); assay type: biochemical
Protocol: (§1) The inhibitory action of PDHK activity was assessed indirectly by measuring the residual PDH activity after kinase reaction in the presence of a test compound.
The recombinant construct was transformed into Escherichia coli (DH5α-TOYOBO). The recombinant clones were identified, and plasmid DNA was isolated and subjected to the DNA sequence analysis. One clone which had the expected nucleic acid sequence was selected for expression work.
The Escherichia coli were grown to an optical density 0.6 ([…]) at 30° C. Protein expression was induced by the addition of 500 μmol/L isopropyl-β-thiogalactopyranoside. The Escherichia coli were cultured at 30° C. for 5 hr and harvested by centrifugation. Resuspension of the Escherichia coli paste was disrupted by a microfluidizer.
The eluted fractions containing FLAG-Tagged protein were pooled, dialyzed against 20 mmol/L HEPES-NaOH, 150 mmol/L sodium chloride, 0.5 mmol/L ethylenediamine tetraacetic acid (EDTA), 1% ethylene glycol, and 0.1% Pluronic F-68 (pH 8.0), and preserved at −80° C.
The mixture was incubated at room temperature for 90 min, and the residual PDH activity was measured.
The absorbance at 340 nm before and after PDH reaction was measured using a microplate reader to detect NADH produced by the PDH reaction.

[2] = biological target: human PDHK2 (hPDHK2) (Homo sapiens (Human), UniProt Q15119); assay: Inhibitory action of PDHK2 activity in vitro (residual PDH activity after kinase reaction); assay type: biochemical; details: monohydrate
Protocol: as §1
In the case of human PDHK2 (hPDHK2, Genbank Accession No. BC040478.1), modified hPDHK2 cDNA wherein FLAG-Tag sequence was added to the N terminus of hPDHK2 cDNA clone (pReceiver-M01/PDK2-GeneCopoeia) was prepared by PCR and cloned into a vector (pET17b-Novagen). The recombinant construct was transformed into Escherichia coli (DH5α-TOYOBO). The recombinant clones were identified, and plasmid DNA was isolated and subjected to the DNA sequence analysis. One clone which had the expected nucleic acid sequence was selected for expression work.
For expression of hPDHK2 activity, Escherichia coli strain BL21(DE3) cells (Novagen) were transformed with the pET17b vector containing modified hPDHK2 cDNA. The Escherichia coli were grown to an optical density 0.6 ([…]) at 30° C. Protein expression was induced by the addition of 500 μmol/L isopropyl-β-thiogalactopyranoside. The Escherichia coli were cultured at 30° C. for 5 hr and harvested by centrifugation. Resuspension of the Escherichia coli paste was disrupted by a microfluidizer. FLAG-Tagged protein was purified using FLAG affinity gel. […]
0.05 U/mL PDH and 0.8 μg/mL hPDHK2 were mixed in a buffer (50 mmol/L 3-morpholinopropanesulfonic acid (pH 7.0), 20 mmol/L dipotassium hydrogen phosphate, 60 mmol/L potassium chloride, 2 mmol/L magnesium chloride, 0.4 mmol/L EDTA, and 0.2% Pluronic F-68, 2 mmol/L dithiothreitol), and the mixture was incubated at 4° C. overnight to obtain a PDH/hPDHK2 complex. […] The mixture was incubated at room temperature for 90 min, and the residual PDH activity was measured. The absorbance at 340 nm before and after PDH reaction was measured using a microplate reader to detect NADH produced by the PDH reaction. The hPDHK2 inhibition rate (%) of the test compound was calculated from the formula [{(PDH activity of test compound−PDH activity of control)/PDH activity of blank−PDH activity of control)}×100].

[3] = system: liver PDH activity; assay: Ex vivo PDH activation assay, liver; assay type: in vivo, Sprague-Dawley rats; details: non-fasting SD rats, vehicle 13 ± 3, mean ± S.D. (n = 3)
Protocol: (§2) The action of test compound on tissue PDH activity was evaluated. NADH production was detected via p-iodonitrotetrazolium violet (INT)-coupled system to measure PDH activity.
(§3) Normal male Sprague-Dawley rats were randomly allocated to the vehicle group and the test compound groups. The vehicle (0.5% aqueous methylcellulose solution, 5 mL/kg) or the test compound was orally administered to the rats. At 5 or 20 hr after administration, the rats were anesthetized with an intraperitoneal injection of sodium pentobarbital (60 mg/kg), and liver slices and epididymal adipose tissues were collected.
(§4) To the liver slices were rapidly added 9 volumes of ice-cold homogenization buffer (0.25 mol/L sucrose, 5 mmol/L tris(hydroxymethyl)aminomethane hydrochloride (pH 7.5), 2 mmol/L EDTA), and the mixtures were homogenized using a Polytron homogenizer. The homogenates were centrifuged at 600×g, 4° C. for 10 min to obtain the supernatant. The supernatants (1 mL) were centrifuged at 16,000×g, 4° C. for 10 min to collect the precipitates. The precipitates were washed by resuspension in the homogenization buffer (1 mL) and centrifuged in the same manner. The precipitates were frozen with liquid nitrogen and stored at −80° C. as the liver mitochondrial fraction.
(§5) The mitochondrial fractions were thawed and suspended with the sample buffer (0.25 mol/L sucrose, 20 mmol/L tris(hydroxymethyl)aminomethane hydrochloride (pH 7.5), 50 mmol/L potassium chloride, and 1 mL/L 4-(1,1,3,3-tetramethylbutyl)phenyl-polyethylene glycol (Triton X-100)). Active PDH activity (PDHa activity) and total PDH activity (PDHt activity) were measured to evaluate the PDH activity. For the measurement of the PDHt activity, equal amounts of the mitochondrial suspension and the activation buffer (0.25 mol/L sucrose, 20 mmol/L tris(hydroxymethyl)aminomethane hydrochloride (pH 7.5), 50 mmol/L potassium chloride, 1 mL/L Triton X-100, 4 mmol/L calcium chloride, 40 mmol/L magnesium chloride, 10 mmol/L sodium dichloroacetate) were mixed, and the mixtures were incubated at 37° C. for 10 min. Forty microliters of the mitochondrial suspensions diluted with a sample buffer were added to a 96-well microplate for activity measurement and blank measurement. Then 180 μL of the reaction mixture (0.056 mmol/L potassium phosphate buffer (pH 7.5), 5.6 mmol/L DL-carnitine, 2.8 mmol/L NAD, 0.22 mmol/L thiamin pyrophosphate, 0.11 mmol/L Coenzyme A, 1.1 mL/L Triton X-100, 1.1 mmol/L magnesium chloride, 1.1 g/L bovine serum albumin, 0.67 mmol/L INT, 7.2 μmol/L phenazine methosulfate, 28 mmol/L sodium oxamate) was added to each well, and then 20 μL of 50 mmol/L sodium pyruvate for activity measurement or water for blank measurement were added. The mixtures were incubated at room temperature under shading. The absorbances at 500-750 nm, which were attributable to reduction of INT, the final electron acceptor, were measured using a microplate reader over time and the changes in the absorbance were calculated. The PDH activity was calculated by subtraction of the change in absorbance of the blank well from that of the activity measurement well. The percentage of the PDHa activity to the PDHt activity was calculated and taken as an index of the PDH activation.

[4] = system: adipose tissue PDH activity; assay: Ex vivo PDH activation assay, adipose tissue; assay type: in vivo, Sprague-Dawley rats; details: non-fasting SD rats, vehicle 31 ± 10, mean ± S.D. (n = 3)
Protocol: as §2, §3
as §4, with “adipose tissues” for “liver slices”, “3” for “9”, “of an” for “of”, “buffer,” for “buffer (0.25 mol/L sucrose, 5 mmol/L tris(hydroxymethyl)aminomethane hydrochloride (pH 7.5), 2 mmol/L EDTA),”, “supernatants” for “supernatants (1 mL)”, “adipose tissue” for “liver”
as §5

[5] = Table 2, 5 hr after oral 3 mg/kg
[6] = Table 2, 20 hr after oral 3 mg/kg

human PDHK1 (hPDHK1), sequence (Q15118 29-436): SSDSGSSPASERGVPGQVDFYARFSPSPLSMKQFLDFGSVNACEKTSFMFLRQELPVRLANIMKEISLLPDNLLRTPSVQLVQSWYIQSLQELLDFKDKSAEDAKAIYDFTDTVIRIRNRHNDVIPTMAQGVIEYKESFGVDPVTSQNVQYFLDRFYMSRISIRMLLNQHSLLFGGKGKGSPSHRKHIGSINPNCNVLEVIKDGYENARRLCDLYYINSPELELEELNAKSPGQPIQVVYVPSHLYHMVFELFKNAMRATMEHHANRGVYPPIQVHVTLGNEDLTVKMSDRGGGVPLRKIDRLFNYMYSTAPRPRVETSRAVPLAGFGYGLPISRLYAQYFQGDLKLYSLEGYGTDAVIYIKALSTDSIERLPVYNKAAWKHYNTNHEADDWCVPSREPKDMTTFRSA

Question: Which IC50 [1] does the source give for `CC(C)(O)CCOc1cc(-c2cnn(C(C)(C)C(N)=O)c2)c2c(c1)[C@@](O)(C(F)(F)F)c1ccccc1-2` [Compound (2h), 2-{4-[(9R)-9-hydroxy-2-(3-hydroxy-3-methylbutyloxy)-9-(trifluoromethyl)-9H-fluoren-4-yl]-1H-pyrazol-1-yl}-2-methylpropanamide monohydrate] here?
Answer: The IC50 was 6.6 nM.

Question: What about the IC50 [2] of the same compound?
Answer: The IC50 was 4.9 nM.

Question: And the “PDHa activity (% of PDHt activity)” value [3, 5]?
Answer: Its value is 59 ± 6 % of PDHt activity.

Question: What about the “PDHa activity (% of PDHt activity)” value [3, 6] of the same compound?
Answer: Its value is 31 ± 5 % of PDHt activity.

Question: What about the “PDHa activity (% of PDHt activity)” value [4, 5] of the same compound?
Answer: The value was 59 ± 2 % of PDHt activity.

Question: What about the “PDHa activity (% of PDHt activity)” value [4, 6] of the same compound?
Answer: The value was 44 ± 12 % of PDHt activity.
